Measurements from patent US20090105301A1, “9A-SUBSTITUTED AZALIDES FOR THE TREATMENT OF MALARIA” (priority 2006, published 2009).
Values after ≈ are worked out from the molar mass of the structure shown. Structures can show the parent of a compound that is named as a salt. Where two headings read alike, the source gives them in different places.

Key:
Assay type in all cases: cell-based, Plasmodium falciparum
[1] = tested on: P. falciparum D6 (CDC/Sierra Leone I, D-6); assay: In vitro screening protocol I, [3H]-hypoxanthine incorporation, D6; conditions: for IC50: Plasmodium falciparum
From the text: (§1) Agents Chemother. 27 (4) (1985) 525-530). The system was limited to the assessment of the intrinsic activity against the erythrocytic asexual life cycle (blood schizontocides). Two Plasmodium falciparum clones from CDC/Indochina III (W-2) and CDC/Sierra Leone I (D-6) (Oduola A M, Weatherly N F, Bowdre J H, Desjardins R E. Plasmodium falciparum: cloning by single-erythrocyte micromanipulation and heterogeneity in vitro. Exp Parasitol. 66 (1) (1988) 86-95) were used for all assays. TM91C235, a multiple drug resistant isolate from Thailand (Antimicrob. Agents Chemother. 46 (8) (2002) 2627 and Antimicrob. Agents Chemother. 43 (3) (1999) 598-602), was used for the prescreening assay. W-2 is resistant to chloroquine, quinine, and pyrimethamine and susceptible to mefloquine. D-6 tends to be more resistant to mefloquine and susceptible to chloroquine, quinine, and pyrimethamine. All documents cited in this paragraph are incorporated by reference in their entirety.
(§2) All parasites were maintained in continuous long term cultures in RPMI-1640 medium supplemented with 6% washed human A positive (A+)(erythrocytes, 25 mM Hepes, […], and 10% heat inactivated A+ human plasma or ALBUMAX® (lipid-rich bovine serum albumin; Invitrogen, Carlsbad, Calif.). All cultures and assays were conducted at 37° C. under an atmosphere of 5% CO2 and 5% O2, with a balance of N2.
(§3) The prescreening assay uses TM91C235 diluted at a 0.4% parasitemia in a 1% hematocrit in folic acid free and p-aminobenzoic acid free media RPMI-1640 and ALBUMAX®. […] The compound is further diluted in folate free (FF) culture medium with ALBUMAX® for the first initial starting concentration. The rest of the stock drug solution was kept at −70° C. The isolate was preexposed, in duplicate, at three concentrations (25,000 ng/ml, 2,500 ng/ml, and […]) of the test compound for 48 hr in a 96-well microtiter plate (MTP) using the BIOMEK® 2000 automated laboratory workstation. Each MTP contains chloroquine as control to assess the relative activity of the compound and to monitor the response of TM91C235.
(§4) After the preincubation, [^3H]-hypoxanthine was added to each well of the MTP. (The assay relies on the incorporation of radiolabeled hypoxanthine by the parasites, which indicates reproduction, and inhibition of isotope incorporation was attributed to activity of known or candidate antimalarial drugs). After 72 hours of total incubation time, the MTP were frozen to lyse the erythrocytes and parasites. The parasite DNA was recovered by harvesting the lysate onto glass-fiber filter plates using a Packard FilterMate™ Cell Harvester. The radioactivity was counted on a Packard TopCount™ microplate scintillation counter.
(§5) The serial dilution assay was conducted using the same assay conditions and stock solution of the compound used for the preliminary screen, described above. Both the D-6 and the W-2 clones were used. The compounds were diluted two-fold over 11 different concentration ranges with a starting concentration that was based on the preliminary screen. For each drug, the concentration response profile was determined and 50% inhibitory concentrations (IC50) were determined by using a non-linear, logistic dose response analysis program. […] For each assay, the IC50 for each clone was determined against the known antimalarials chloroquine and mefloquine. These control values established the compound's relative parasite susceptibility profile compared to known antimalarials. […]

[2] = tested on: P. falciparum TM91C235; assay: In vitro screening protocol I, [3H]-hypoxanthine incorporation, TM91C235; conditions: for IC50: Plasmodium falciparum, read-out: IC50 TM91C235
From the text: as §1, §2, §3, §4, §5

[3] = tested on: P. falciparum W2 (CDC/Indochina III, W-2); assay: In vitro screening protocol I, [3H]-hypoxanthine incorporation, W2; conditions: for IC50: Plasmodium falciparum
From the text: as §1, §2, §3, §4, §5

[4] = In vitro screening protocol I, P. falciparum D6, read-out: IC50 D6
[5] = In vitro screening protocol I, P. falciparum TM91C235
[6] = In vitro screening protocol I, P. falciparum W2, read-out: IC50 W2
[7] = In vitro screening protocol I, P. falciparum D6
[8] = In vitro screening protocol I, P. falciparum W2

IC50 [1, 4] [µg/mL]	IC50 [2, 5] [µg/mL]	IC50 [3, 6] [µg/mL]	Structure (SMILES)	further results
0.2 to 1 (≈ 0.223 to 1.12 µM)	< 0.1	< 0.1	CC[C@H]1OC(=O)[C@H](C)[C@@H](O[C@H]2C[C@@](C)(OC)[C@@H](O)[C@H](C)O2)[C@H](C)[C@@H](O[C@@H]2O[C@H](C)C[C@H](N(C)C)[C@H]2O)[C@](C)(O)C[C@@H](C)CN(CCCNCCc2ccccc2)[C@H](C)[C@@H](O)[C@]1(C)O [Example 20, 9a-{3-[(2-Phenylethyl)amino]propyl}-9-deoxo-9-dihydro-9a-aza-9a-homoerythromycin A]	
< 0.1	< 0.1	< 0.1	CCOc1ccc2ccccc2c1CNCCCN1C[C@H](C)C[C@@](C)(O)[C@H](O[C@@H]2O[C@H](C)C[C@H](N(C)C)[C@H]2O)[C@@H](C)[C@H](O[C@H]2C[C@@](C)(OC)[C@@H](O)[C@H](C)O2)[C@@H](C)C(=O)O[C@H](CC)[C@@](C)(O)[C@H](O)[C@H]1C [Example 7, 9a-[3-({[2-(Ethyloxy)-naphthalen-1-yl]methyl}amino)propyl]-9-deoxo-9-dihydro-9a-aza-9a-homoerythromycin A]	
0.1 to 0.2 (≈ 0.106 to 0.213 µM)	< 0.1	0.1 to 0.2 (≈ 0.106 to 0.213 µM)	CC[C@H]1OC(=O)[C@H](C)[C@@H](O[C@H]2C[C@@](C)(OC)[C@@H](O)[C@H](C)O2)[C@H](C)[C@@H](O[C@@H]2O[C@H](C)C[C@H](NC)[C@H]2O)[C@](C)(O)C[C@@H](C)CN(CCCNc2ccnc3cc(Cl)ccc23)[C@H](C)[C@@H](O)[C@]1(C)O [Example 21B, 9a-{3-[(7-Chloro-quinolin-4-yl)amino]propyl}-3′N-demethyl-9-deoxo-9-dihydro-9a-aza-9a-homoerythromycin A]	
0.2 to 1 (≈ 0.223 to 1.12 µM)	0.2 to 1 (≈ 0.223 to 1.12 µM)	0.2 to 1 (≈ 0.223 to 1.12 µM)	CC[C@H]1OC(=O)[C@H](C)[C@@H](O[C@H]2C[C@@](C)(OC)[C@@H](O)[C@H](C)O2)[C@H](C)[C@@H](O[C@@H]2O[C@H](C)C[C@H](N(C)C)[C@H]2O)[C@](C)(O)C[C@@H](C)CN(CCC(=O)NCc2ccccc2)[C@H](C)[C@@H](O)[C@]1(C)O [Example 38]	
			CC[C@H]1OC(=O)[C@H](C)[C@@H](O)[C@H](C)[C@@H](O[C@@H]2O[C@H](C)C[C@H](N(C)C)[C@H]2O)[C@](C)(O)C[C@@H](C)CN(CCCNCc2cccnc2)[C@H](C)[C@@H](O)[C@]1(C)O [Example 13, 9a-{3-[(Pyridine-3-yl-methyl)amino]propyl}-3-O-decladinosyl-9-deoxo-9-dihydro-9a-aza-9a-homoerythromycin A]	IC50 D6 [1, 7]: G (3500 < X ≦ 5000); IC50 TM91C235 [2, 5]: D (1000 < X ≦ 2500); IC50 W2 [3, 8]: C (200 < X ≦ 1000)
			CC[C@H]1OC(=O)[C@H](C)[C@@H](O[C@H]2C[C@@](C)(OC)[C@@H](O)[C@H](C)O2)[C@H](C)[C@@H](O[C@@H]2O[C@H](C)C[C@H](N(C)C)[C@H]2O)[C@](C)(O)C[C@@H](C)CN(CCCNCc2cccnc2)[C@H](C)[C@@H](O)[C@]1(C)O [Example 12, 9a-{3-[(Pyridine-3-yl-methyl)amino]propyl}-9-deoxo-9-dihydro-9a-aza-9a-homoerythromycin A]	IC50 D6 [1, 7]: C (200 < X ≦ 1000); IC50 TM91C235 [2, 5]: C (200 < X ≦ 1000); IC50 W2 [3, 8]: C (200 < X ≦ 1000)
0.1 to 0.2	< 0.1	0.2 to 1	CC[C@H]1OC(=O)[C@H](C)[C@@H](O[C@H]2C[C@@](C)(OC)[C@@H](O)[C@H](C)O2)[C@H](C)[C@@H](O[C@@H]2O[C@H](C)C[C@H](N(C)C)[C@H]2O)[C@](C)(O)C[C@@H](C)CN(CCCNC(=O)Cc2ccc3ccccc3c2)[C@H](C)[C@@H](O)[C@]1(C)O [Example 33, 9a-{3-[(Naphtalen-2-yl-acetyl)amino]propyl}-9a-aza-9-deoxo-9-dihydro-9a-homoerythromycin A Formiate Salt]	
			CC[C@H]1OC(=O)[C@H](C)[C@@H](O[C@H]2C[C@@](C)(OC)[C@@H](O)[C@H](C)O2)[C@H](C)[C@@H](O[C@@H]2O[C@H](C)C[C@H](N(C)C)[C@H]2O)[C@](C)(O)C[C@@H](C)CN(CCCNCc2ccccc2)[C@H](C)[C@@H](O)[C@]1(C)O [Example 52, 9a-{3-[(Phenylmethyl)amino]propyl}-9-deoxo-9-dihydro-9a-aza-9a-homoerythromycin A]	IC50 ([1]; D6, read-out: IC50 D6): 0.2 to 1 µg/mL (≈ 0.227 to 1.13 µM); IC50 [2]: < 0.1 µg/mL; IC50 ([3]; W2, read-out: IC50 W2): < 0.1 µg/mL
0.2 to 1	0.2 to 1	0.2 to 1	CC[C@H]1OC(=O)[C@H](C)[C@@H](O)[C@H](C)[C@@H](O[C@@H]2O[C@H](C)C[C@H](N(C)C)[C@H]2O)[C@](C)(O)C[C@@H](C)CN(CCCNC(=O)[C@H](C)c2ccc3cc(OC)ccc3c2)[C@H](C)[C@@H](O)[C@]1(C)O [Example 37, 9a-[3-({(2S)-2-[6-(methyloxy)-naphthalen-2-yl]propanoyl}amino)propyl]-3-O-decladinosyl-9a-aza-9-deoxo-9-dihydro-9a-homoerythromycin A Formiate Salt]	
0.1 to 0.2 (≈ 0.11 to 0.22 µM)	< 0.1	< 0.1	CC[C@H]1OC(=O)[C@H](C)[C@@H](O[C@H]2C[C@@](C)(OC)[C@@H](O)[C@H](C)O2)[C@H](C)[C@@H](O[C@@H]2O[C@H](C)C[C@H](N(C)C)[C@H]2O)[C@](C)(O)C[C@@H](C)CN(CCCNCCCc2ccccc2)[C@H](C)[C@@H](O)[C@]1(C)O [Example 19, 9a-{3-[(3-Phenylpropyl)amino]propyl}-9-deoxo-9-dihydro-9a-aza-9a-homoerythromycin A]	
			CC[C@H]1OC(=O)[C@H](C)[C@@H](O)[C@H](C)[C@@H](O[C@@H]2O[C@H](C)C[C@H](N(C)C)[C@H]2O)[C@](C)(O)C[C@@H](C)CN(CCCNCc2cccc3ccccc23)[C@H](C)[C@@H](O)[C@]1(C)O [Example 9, 9a-{3-[(Naphtalen-1-yl-methyl)amino]propyl}-3-O-decladinosyl-9-deoxo-9-dihydro-9a-aza-9a-homoerythromycin A]	IC50 D6 [1, 7]: A (X ≦ 100); IC50 TM91C235 [2, 5]: A (X ≦ 100); IC50 W2 [3, 8]: A (X ≦ 100)
0.2 to 1	< 0.1	0.2 to 1	CC[C@H]1OC(=O)[C@H](C)[C@@H](O[C@H]2C[C@@](C)(OC)[C@@H](O)[C@H](C)O2)[C@H](C)[C@@H](O[C@@H]2O[C@H](C)C[C@H](N(C)C)[C@H]2O)[C@](C)(O)C[C@@H](C)CN(CCCNC(=O)Cc2cccc3ccccc23)[C@H](C)[C@@H](O)[C@]1(C)O [Example 29, 9a-{3-[(Naphtalen-1-yl-acetyl)amino]propyl}-9a-aza-9-deoxo-9-dihydro-9a-homoerythromycin A Formiate Salt]	
0.2 to 1	< 0.1	0.2 to 1	CC[C@H]1OC(=O)[C@H](C)[C@@H](O[C@H]2C[C@@](C)(OC)[C@@H](O)[C@H](C)O2)[C@H](C)[C@@H](O[C@@H]2O[C@H](C)C[C@H](N(C)C)[C@H]2O)[C@](C)(O)C[C@@H](C)CN(CCCNC(=O)CCc2ccccc2)[C@H](C)[C@@H](O)[C@]1(C)O [Example 27, 9a-{3-[(3-Phenylpropanoyl)amino]propyl}-9a-aza-9-deoxo-9-dihydro-9a-homoerythromycin A Formiate Salt]	
			CCC1OC(=O)C(C)C(O)C(C)C(O)C(C)(O)CC(C)CN(CCCNCc2cnc3ccccc3c2)C(C)C(O)C1(C)O (stereo not drawn) [Example 6, 9a-{3-[(Quinolin-3-yl-methyl)amino]propyl}-3-O-decladinosyl-5-O-dedesosaminyl-9-deoxo-9-dihydro-9a-aza-9a-homoerythromycin A]	IC50 D6 [1, 7]: F (2800 < X ≦ 3500); IC50 TM91C235 [2, 5]: D (1000 < X ≦ 2500); IC50 W2 [3, 8]: C (200 < X ≦ 1000)
